From patent US8273344B2, “Recombinant adeno-associated virus expressing human antisense gene CyP2J2 and its preparation methods” (priority 2004, dated 2012)
Where “and” joins values, the source holds several entries; their conditions need not be identical. Equal values may be shown once.

How the values were obtained:
tumor = assay: Growth of tumor under EET blocker (FIG. 16); conditions: FIG. 16, 100 nmol/L
[1] = test system: four different kinds of tumor cell lines; assay: TNFα-induced apoptosis of tumor cells (DNA ladder, acridine orange staining, flow cytometry); format: cell-based, human; conditions: for total apoptotic rate: flow cytometry; for number of apoptotic cells (acridine orange / ethidium bromide staining): fluorescent microscope, vs control group
Description: A week later, TNFα is used to induce the apoptosis of tumor cells. The apoptosis is measured using different methods. […] Thus, the EETs and epoxygenase gene resist the apoptosis of cancer cells induced by TNF-α. After PI staining and Annexin V-FITC/PI dobule staining separatively, the total apoptosis rate and early apoptosis rate of cells are calculated using flow cytometry.

Akt, Bcl-2, Bcl-xL, Bax = format: cell-based
transplantation tumor = assay: Growth of transplantation tumor under epoxygenase inhibitor (FIG. 17); format: in vivo; conditions: FIG. 17, without joint use of 5-fluorouracil
four tumor cell lines = assay: Proliferation of four kinds of tumor cells in vitro; format: cell-based, human; conditions: FIG. 15, dose dependence
Description: The epoxygenase metabolizes arachidonic acid to yield endogenous epoxyeicosatrienoic acids. Thus, the EETs concentration is increased indirectly. This can directly verity that the function of CYP epoxygenase for promoting proliferation of tumor cells.

[2] = test system: Tca-8113, A549, Ncl-H446, and HepG2 cell lines; assay: Migration and invasion of tumor cells in modified Boyden chamber; format: cell-based, human; conditions: 5 h, P<0.01
Description: The migration of epithelial cells in the modified Boyden chamber is measured using a conventional method. A polycarbonate filter membrane of […] is coated at 4° C. for 24 h using collagen IV (10 μg/mL) and Matrigel (11 μg/filter). The Tca-8113, A549, Ncl-H446, and HepG2 cell lines are washed with DMEM culture solution to 2×10^6/mL. 200 μL of DMEM containing 5% FBS is added to the low part of the Boyden chamber as a chemoattractant, and followed by covering a polycarbonate filter membrane. 800 μL of a cell suspension is added to the upper part of the Boyden chamber, cultured at 37° C. at 5% CO2 for 5 h. The device is disassembled and the membrane is collected. The cells are cleaned off, and the membrane is fixed with carbinol and stained with hematoxylin. Five fields of vision per membrane are observed under a 200× microscope. Subsequently, the number of migrating cells is calculated.

[3] = EET pretreatment experiment, control 28.15%±4.7

Compound	growth of tumor (tumor)	total apoptotic rate [1, 3]	formation of DNA ladder ([1]; TNFα-induced apoptosis)	number of apoptotic cells (acridine orange / ethidium bromide staining) [1]	expression of antiapoptosis protein Bcl-2 and Bcl-xL (Akt, Bcl-2, Bcl-xL, Bax)	expression of apoptosis protein Bax (Akt, Bcl-2, Bcl-xL, Bax)	phosphorylation of Akt (Akt, Bcl-2, Bcl-xL, Bax)	growth of transplantation tumor (transplantation tumor)	apoptosis of tumor cells (in words) ([1]; induced by TNF-α)	total apoptotic rate ([1]; transfection experiment, control 20.15%±3.5)	growth of tumor cells (four tumor cell lines)	ability of migrating of cells relative to basal state [2]
CCCCCC1OC1C/C=C\C/C=C\C/C=C\CCCC(=O)O (centres unmarked) [14, 15-EET]	can inhibit											
epoxyeicosatrienoic acids [EETs]		14.94%±3.5 and 11.72%±4.2 and 12.89%±2.7	decrease significantly	significantly less	increase	decrease	promote					
C#CCCCCCCCCCCCCCCCC(=O)O [17-ODYA]		52.65%±3.6		large	completely opposite effect	completely opposite effect	completely opposite effect	can inhibit	promotes significantly	33.51%±6.1	dose-dependently inhibits	about 60 % of basal state
